Where two headings read alike, the source gives them in different places.
Assays:
[1] = system: IK1 (inward rectifier K^+ current); test: Voltage-clamp measurement of IK1 in guinea pig ventricular myocytes; type: cell-based; settings: @ 3 μM
Protocol: (§1) Guinea pig ventricular myocytes were isolated using a modification of the procedure described by Mitra et al., Am. J. Physiol. 249:H1056-60 (1985). Excised hearts were perfused through the aorta (retrograde fashion) at a rate of 10 ml/min with oxygenated, warmed (37° C.) solutions described below. The heart was initially perfused for 7 minutes with a Tyrode's solution containing, (in mM): 132 NaCl, 4 KCl, 1.2 MgCl2, 10 HEPES, 5 glucose, pH=7.2. The heart was then perfused with the same nominally Ca^2+ -free solution containing 150 units/ml Type II collagenase (Worthington) and 0.5 units/ml Type XIV protease (Sigma) for 8 minutes. This perfusate was followed by a Tyrode's solution containing 0.2 mM CaCl2 (without enzymes) for 5 minutes. The digested ventricles were cut into small pieces and gently shaken until cells were visibly dispersed. The cells were stored at room temperature until use, within 8 hours after isolation.
(§2) The suction microelectrode technique described by Giles, W. R. and Shibata, E. F., "Voltage clamp of bull-frog cardiac pacemaker cells: a quantitative analysis of potassium currents", J. Physiol. 368:265-292 (1985) was used to voltage clamp the cells. Microelectrodes were made by using a two stage puller from square bore (1.0 mm o.d.) borosilicate capillary tubing. Pipettes were filled with 0.5 M K gluconate, 25 mM KCl and 5 mM K2 ATP. The electrodes had resistances of 3 to 7 M.OMEGA. when filled with this solution. After establishing whole-cell recording mode, negative pressure was maintained on the pipette using a 1 ml gas-tight syringe attached via air tight tubing to the suction port of the microelectrode holder. This minimized dialysis of the cell with the pipette solution.
(§3) To record K^+ currents, the cells were bathed in a Ca^2+ -free Tyrode's solution containing […]. […] To record Ca^2+ currents, the cells were bathed in Tyrode's solution containing 1.8 mM Ca^2+ without nisoldipine. The cell chamber was superfused with solutions at a rate of 1-2 ml/minute, while maintaining the temperature at 35±1° C. A List EPC-7 clamp amplifier was used to voltage clamp the isolated cells. […] (Sanguinetti M. C. and Jurkiewicz, N. K., "Two components of cardiac delayed rectifier K^+ current: Differential sensitivity to block by Class III antiarrhythmic agents", J. Gen Physiol 1990; 96:194-214.) Data was analyzed as % block from control membrane currents.
(§4) Nisoldipine was prepared as a 4 mM stock solution in polyethylene glycol 200. […] At the final concentrations used neither polyethylene glycol 200 nor dimethyl sulfoxide had any effect on any of the measured membrane currents.
(§5) Selectivity for block of cardiac K^+ channels, IK1, IKr, and IKs was determined as previously described in guinea pig ventricular myocytes (U.S. Pat. No. 5,428,031).

[2] = system: atrial flutter
Protocol: In this model, atrial flutter was induced following a Y-shaped surgical lesion comprised of an intercaval incision and a connecting incision across the right atrium. […] Bipolar electrodes also were sutured to the left ventricle for measurement of ventricular excitation threshold (VET) and ventricular relative (VRRP at 2× VET) and effective refractory periods (VERP at 10×VET). The following cardiac electrophysiologic parameters also were measured before test agent administration and at the termination of the study: AH interval, an index of AV nodal conduction; HV interval, an index of His-ventricular conduction time; P-A interval, an index of intra-atrial conduction; and H-EG interval, an index of ventricular conduction; and paced ECG QT interval. AV nodal functional refractory period (AVNFRP) and SA conduction time (SACT) were determined by the introduction of atrial extrastimuli during sinus rhythm, and the monitoring of ventricular response. Electrocardiographic intervals were determined during sinus rhythm; the rate-corrected ECG QTc interval was calculated as: QTc=QT (msec)/√R-R (sec).
Sustained atrial flutter was initiated in three dogs by electrical burst pacing (6-20 Hz) of the atria; atrial rates ranged from 440-530 cycles/min.

[3] = target: T1, IKr (rapidly activating delayed rectifier K^+ current) (Cavia porcellus, UniProt O08703); test: Voltage-clamp measurement of IKr in guinea pig ventricular myocytes; type: cell-based; settings: @ 3 μM; read-out: % Block (Guinea Pig Ventricle) IKr
T1 construct: Guinea pig ventricular myocytes were isolated; from tissue; host or cells: isolated guinea pig ventricular myocytes
T1 sequence (O08703 1-1294): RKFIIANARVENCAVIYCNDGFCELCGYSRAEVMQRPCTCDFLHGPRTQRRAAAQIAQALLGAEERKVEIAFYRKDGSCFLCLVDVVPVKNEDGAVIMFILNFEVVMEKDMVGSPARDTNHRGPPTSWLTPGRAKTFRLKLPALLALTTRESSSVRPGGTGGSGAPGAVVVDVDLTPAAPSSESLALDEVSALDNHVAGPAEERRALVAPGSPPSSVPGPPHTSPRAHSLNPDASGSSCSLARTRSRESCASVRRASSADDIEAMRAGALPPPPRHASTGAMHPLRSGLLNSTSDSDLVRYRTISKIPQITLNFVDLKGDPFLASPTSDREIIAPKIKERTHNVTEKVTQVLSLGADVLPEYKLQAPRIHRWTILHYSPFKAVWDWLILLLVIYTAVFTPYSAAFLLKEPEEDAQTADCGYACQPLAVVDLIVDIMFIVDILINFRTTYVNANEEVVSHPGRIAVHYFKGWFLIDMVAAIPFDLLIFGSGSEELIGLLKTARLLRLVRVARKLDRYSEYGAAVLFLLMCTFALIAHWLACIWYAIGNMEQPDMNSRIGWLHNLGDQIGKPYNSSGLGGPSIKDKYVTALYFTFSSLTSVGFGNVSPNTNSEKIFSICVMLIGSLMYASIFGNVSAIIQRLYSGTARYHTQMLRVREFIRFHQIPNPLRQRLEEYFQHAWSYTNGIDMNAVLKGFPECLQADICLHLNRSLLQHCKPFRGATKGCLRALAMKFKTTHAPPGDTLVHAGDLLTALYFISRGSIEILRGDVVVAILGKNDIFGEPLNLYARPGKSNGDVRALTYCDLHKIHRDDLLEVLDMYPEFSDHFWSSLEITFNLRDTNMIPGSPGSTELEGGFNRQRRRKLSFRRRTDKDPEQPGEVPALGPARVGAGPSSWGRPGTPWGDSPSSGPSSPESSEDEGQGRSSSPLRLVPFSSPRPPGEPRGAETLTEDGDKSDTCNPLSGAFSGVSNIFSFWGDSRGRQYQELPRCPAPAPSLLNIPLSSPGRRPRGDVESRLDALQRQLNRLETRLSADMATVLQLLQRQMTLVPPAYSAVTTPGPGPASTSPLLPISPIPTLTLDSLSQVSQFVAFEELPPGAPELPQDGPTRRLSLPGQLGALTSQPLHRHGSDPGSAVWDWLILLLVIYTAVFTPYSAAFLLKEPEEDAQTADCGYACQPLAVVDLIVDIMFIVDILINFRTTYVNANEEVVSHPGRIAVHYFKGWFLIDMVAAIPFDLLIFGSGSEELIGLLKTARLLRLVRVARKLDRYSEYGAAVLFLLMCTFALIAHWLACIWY
Protocol: as §1, §2, §3, §4, §5

[4] = target: T2, IKs (slowly activating delayed rectifier K^+ current) (Cavia porcellus, UniProt O70344); test: Voltage-clamp measurement of IKs in guinea pig ventricular myocytes; type: cell-based; settings: @ 3 μM; read-out: % Block (Guinea Pig Ventricle) IKs
T2 construct: Guinea pig ventricular myocytes were isolated; from tissue; host or cells: isolated guinea pig ventricular myocytes
Protocol: as §1, §2, §3, §4, §5

T2 sequence (O70344 whole entry): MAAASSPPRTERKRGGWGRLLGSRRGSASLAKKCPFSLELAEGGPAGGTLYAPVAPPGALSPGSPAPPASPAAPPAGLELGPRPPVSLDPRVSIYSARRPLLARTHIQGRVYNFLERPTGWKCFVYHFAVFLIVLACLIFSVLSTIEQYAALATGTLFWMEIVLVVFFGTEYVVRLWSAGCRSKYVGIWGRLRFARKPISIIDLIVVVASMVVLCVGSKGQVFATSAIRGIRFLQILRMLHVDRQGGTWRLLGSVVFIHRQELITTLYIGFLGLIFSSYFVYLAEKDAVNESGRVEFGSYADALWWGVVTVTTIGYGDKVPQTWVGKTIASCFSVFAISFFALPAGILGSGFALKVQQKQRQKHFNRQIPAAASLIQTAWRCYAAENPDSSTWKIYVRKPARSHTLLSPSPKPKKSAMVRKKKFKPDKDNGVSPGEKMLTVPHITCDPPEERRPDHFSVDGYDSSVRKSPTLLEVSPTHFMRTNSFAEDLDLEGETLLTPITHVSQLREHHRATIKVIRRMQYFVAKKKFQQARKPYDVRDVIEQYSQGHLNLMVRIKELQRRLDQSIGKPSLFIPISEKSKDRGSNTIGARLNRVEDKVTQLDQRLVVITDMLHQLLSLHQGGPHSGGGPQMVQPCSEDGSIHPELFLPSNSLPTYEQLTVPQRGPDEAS
T2 sequence (Q60409 whole entry partner): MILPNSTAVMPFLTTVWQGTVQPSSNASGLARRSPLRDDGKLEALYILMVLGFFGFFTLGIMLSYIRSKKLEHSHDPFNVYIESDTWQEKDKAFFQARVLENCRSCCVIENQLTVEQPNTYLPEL

CC1CCC(C(C)C)C(P(=O)(c2ccccc2)c2ccccc2)C1 (centres unmarked) [Compound D, (2-Isopropyl-5-methylcyclohexyl)diphenylphosphine oxide]
% Block (Guinea Pig Ventricle) IK1 [1]: 15%
effect on ventricular function ([2]; dog, in vivo): no indication of effect on ventricular function
time to termination of atrial arrhythmia after test agent administration ([2]; i.v. bolus 1 mg/kg (three dogs) or 10 mg/kg (fourth dog)): 10 to 120 s
atrial rate during atrial flutter ([2]; i.v. bolus 1 mg/kg (three dogs) or 10 mg/kg (fourth dog), initial rates 450-560 cycles/min): slowed atrial rate
termination of atrial arrhythmia ([2]; i.v. bolus 1 mg/kg, in three of four dogs): terminated the atrial arrhythmia
termination of atrial arrhythmia ([2]; i.v. bolus 10 mg/kg, in the fourth of four dogs): terminated the atrial arrhythmia
inhibition at 3 µM [3]: 3%
inhibition at 3 µM [4]: 25%

— US5935945A, “Methods of treating or preventing cardiac arrhythmia” (Merck & Co., Inc., priority 1997, dated 1999)
